In patent publication US20090170834A1, “Fused Pyrimidones and Thiopyrimidones, and Uses Thereof” (PROLEXYS PHARMACEUTICALS, INC., priority 2005, published 2009) one finds IC50 data, which are given here for nine molecules.

pIC50: −log10 of the molar value.

In one assay the test system is HT-1080 cells. The experiment in a line: Inhibition of growth of HT-1080 cells (Sytox assay). Conditions: Homo sapiens; HT-1080 fibrosarcoma cells, N-ras codon 12 mutation; compound in DMSO, 48 hours exposure. Type of assay: cell-based. The protocol: The ability of Compounds 1 and 2, dissolved in DMSO, to inhibit the growth of normal and tumorigenic cells was measured. The compounds were assayed by the Sytox primary screen, a phenotypic assay which monitors alterations in cell survival-proliferation as a result of compound treatment. It was devised as high throughput method to identify compounds which specifically alter the growth potential of cells harboring the causative mutations found in cancer patients while not affecting the growth of normal cells. The assay relies upon an inexpensive, simple and reliable readout of a membrane impermeable fluorescent dye (Sytox, from Molecular Probes) which binds to nucleic acid. In healthy cells, no signal is detected because the cell's membrane is intact and the dye will not enter. However, if a cell's membrane is compromised as a result of apoptosis or necrosis, a fluorescent signal proportional to the number of similarly affected cells will be detected. By utilizing a two-step readout (final read in the presence of detergent to permit labeling of all cells), the assay can identify compounds which produce cytostasis, cytotoxicity and/or mitogenesis. The first read or “dead cell” read, provides an estimate of the toxicity of a given compound by indicating the number of dead or dying cells in the culture at the time of assay. The second read or “total cell” read, captures both the cumulative effects of cytoxicity in reducing the size of the cell population as well as any cytostatic or anti-proliferative effects a test compound may exert on the cells in the test population in the absence of toxicity.
Cells were seeded overnight in 96 well plates at densities that without treatment would permit 95% confluence in the wells 72 hours later. The following day, the cells were exposed to test compounds in a dilution series for a period of 48 hours. Following this incubation period, the Sytox reagent was added to the cultures at the manufacturer's recommended concentration and the dead cell fluorescence read was taken. After completion of this measurement, the detergent Saponin was added to each well of the cultures to permeabilize the membranes allowing the Sytox reagent to enter every cell, thereby facilitating measurement of the total number of cells remaining in the culture.
The ability of various compounds of the invention, in DMSO, to inhibit the growth of HT-1080 cells was measured. The HT-1080 cell line used in these experiments was derived from a patient with fibrosarcoma and harbors an activating mutation in the N-ras gene at codon 12. The compound was assayed using the assay described in Example 6. The results of the assay are shown in the table below, where the activity corresponds to the following ranges: A—less than 10 nM, B—10-100 nM, C—100-1000 nM, D—1000-2000 nM, E—greater than 2000 nM.

For assay [1], the system named is engineered tumorigenic cells. The experiment in a line: Sytox primary screen, inhibition of growth of tumorigenic cells. Particulars: Homo sapiens; compound in DMSO, 48 hours exposure, Sytox readout. The class given is cell-based. As for the experimental part:
The ability of Compounds 1 and 2, dissolved in DMSO, to inhibit the growth of normal and tumorigenic cells was measured. The compounds were assayed by the Sytox primary screen, a phenotypic assay which monitors alterations in cell survival-proliferation as a result of compound treatment. It was devised as high throughput method to identify compounds which specifically alter the growth potential of cells harboring the causative mutations found in cancer patients while not affecting the growth of normal cells. The assay relies upon an inexpensive, simple and reliable readout of a membrane impermeable fluorescent dye (Sytox, from Molecular Probes) which binds to nucleic acid. In healthy cells, no signal is detected because the cell's membrane is intact and the dye will not enter. However, if a cell's membrane is compromised as a result of apoptosis or necrosis, a fluorescent signal proportional to the number of similarly affected cells will be detected. By utilizing a two-step readout (final read in the presence of detergent to permit labeling of all cells), the assay can identify compounds which produce cytostasis, cytotoxicity and/or mitogenesis. The first read or “dead cell” read, provides an estimate of the toxicity of a given compound by indicating the number of dead or dying cells in the culture at the time of assay. […]

In the assay on HT-1080 cells, `CCOc1ccccc1-n1c(CN2CCCN(C)CC2)nc2cnccc2c1=O` [Compound 9, 3-(2-ethoxyphenyl)-2-((4-methyl-1,4-diazepan-1-yl)methyl)pyrido[3,4-d]pyrimidin-4(3H)-one] showed a pIC50 of less than 5.70.

In the assay with HT-1080 cells, `CCOc1ccccc1-n1c(CN2CCNCC2)nc2c(cnn2-c2ccccc2)c1=O` [Compound 3, 5-(2-ethoxyphenyl)-1-phenyl-6-(piperazin-1-ylmethyl)-1H-pyrazolo[3,4-d]pyrimidin-4(5H)-one] had a pIC50 of less than 5.70.

Molecule `CCOc1ccccc1-n1c(C(C)N2CCN(C(=O)COc3ccc(Cl)cc3)CC2)nc2c(cnn2-c2ccccc2)c1=O` (stereo not drawn) [Compound 2, 6-(1-(4-(2-(4-chlorophenoxy)acetyl)piperazin-1-yl)ethyl)-5-(2-ethoxyphenyl)-1-phenyl-1H-pyrazolo[3,4-d]pyrimidin-4(5H)-one] gave a negative-log IC50 (pIC50) in assay [1] of roughly 5.00.

Molecule `CCOc1ccccc1-n1c(C(C)N2CCN(C(=O)COc3ccc(Cl)cc3)CC2)nc2ccncc2c1=O` (stereo not drawn) [Compound 1, 2-(1-(4-(2-(4-chlorophenoxy)acetyl)piperazin-1-yl)ethyl)-3-(2-ethoxyphenyl)pyrido[4,5-d]pyrimidin-4(3H)-one] had a pIC50 in assay [1] of roughly 5.00.

For `CCOc1ccccc1-n1c(CN2CCCN(C)CC2)nc2sccc2c1=O` [Compound 6, 3-(2-ethoxyphenyl)-2-((4-methyl-1,4-diazepan-1-yl)methyl)thieno[2,3-d]pyrimidin-4(3H)-one], in the assay with HT-1080 cells, the pIC50 is greater than 8.00.

Regarding `CCOc1ccccc1-n1c(CN2CCCN(CC)CC2)nc2sccc2c1=O` [Compound 7, 3-(2-ethoxyphenyl)-2-((4-ethyl-1,4-diazepan-1-yl)methyl)thieno[2,3-d]pyrimidin-4(3H)-one], the negative-log IC50 (pIC50) in the assay with HT-1080 cells is 7.00 to 8.00.

In the assay with HT-1080 cells, `CCOc1ccccc1-n1c(CN2CCCNCC2)nc2sccc2c1=O` [Compound 5, 2-((1,4-diazepan-1-yl)methyl)-3-(2-ethoxyphenyl)thieno[2,3-d]pyrimidin-4(3H)-one] had a negative logarithm of the IC50 (pIC50) greater than 8.00.

`CCOc1ccccc1-n1c(CN2CCNCC2)nc2cnccc2c1=O` [Compound 8, 3-(2-ethoxyphenyl)-2-(piperazin-1-ylmethyl)pyrido[3,4-d]pyrimidin-4(3H)-one] gave a negative logarithm of the IC50 (pIC50) in the assay with HT-1080 cells of less than 5.70.

With `CCOc1ccccc1-n1c(CN2CCNCC2)nc2sccc2c1=O` [Compound 4, 3-(2-ethoxyphenyl)-2-(piperazin-1-ylmethyl)thieno[2,3-d]pyrimidin-4(3H)-one], the pIC50 in the assay with HT-1080 cells is 6.00 to 7.00.
